For assay [1], the system named is dextran sulfate sodium (DSS) induced colitis. In words: Mouse DSS colitis model. The assay is classed as in vivo, mice. As to conditions: mouse, in vivo.
The subject of another assay is Proteus vulgaris. In words: Broth microdilution MIC. Format: cell-based. A general note: Broth dilution looks for growth in wells or tubes with falling amounts of substance.
For a further assay, the system named is Providencia stuartii. In words: Broth microdilution MIC. The assay is classed as cell-based.
A further assay deals with Klebsiella oxtoca. Description: Broth microdilution MIC. The assay is classed as cell-based.
A further assay has as its system Staph. epidermidis. Description: Broth microdilution MIC. The assay is classed as cell-based. Particulars: Staphylococcus epidermidis.
Assay [2] has as its system stationary phase cultures of MSSA and MRSA. Description: Time-kill against stationary phase cultures of MSSA and MRSA. Format: cell-based, Staph. aureus. As to conditions: up to 10× the MIC; data not shown.
The next assay relates to Citrobacter fruendi. Description: Broth microdilution MIC. Format: cell-based.
In the next assay the test system is Strept. pneumoniae. Description: Broth microdilution MIC. Format: cell-based. As to conditions: Streptococcus pneumoniae.
The test system of the next assay is Entero. faecium (VRE). In words: Broth microdilution MIC. The assay is classed as cell-based. Particulars: Enterococcus faecium.
The next assay relates to Proteus mirabilis. Description: Broth microdilution MIC. Format: cell-based.
Another assay has as its system Strept. agalactiae. In words: Broth microdilution MIC. The assay is classed as cell-based. As to conditions: Streptococcus agalactiae.
Another assay relates to Pseud. aeruginosa. Description: Broth microdilution MIC. The assay is classed as cell-based. As to conditions: Pseudomonas aeruginosa.
A further assay relates to Strept. viridians. Description: Broth microdilution MIC. Format: cell-based.
Another assay deals with Staph. spp. coagulase-. Description: Broth microdilution MIC. The assay is classed as cell-based.
A further assay concerns Citrobacter koseri. In words: Broth microdilution MIC. The assay is classed as cell-based.
The next assay concerns Klebsiella pneumoniae. In words: Broth microdilution MIC. The assay is classed as cell-based.
For another assay, the system named is Escherichia coli. Description: Broth microdilution MIC. Format: cell-based.
Another assay has as its system Strept. pyogenes. Description: Broth microdilution MIC. The assay is classed as cell-based. Particulars: Streptococcus pyogenes.
A further assay deals with Enterobacter cloacae. In words: Broth microdilution MIC. The assay is classed as cell-based.
In the next assay the test system is Staph. saprophyticus. Description: Broth microdilution MIC. Format: cell-based. As to conditions: Staphylococcus saprophyticus.
The test system of the next assay is Morganella morganii. In words: Broth microdilution MIC. The assay is classed as cell-based.
For another assay, the system named is Entero. faecalis. Description: Broth microdilution MIC. The assay is classed as cell-based. As to conditions: Enterococcus faecalis.
In the next assay the test system is Serratia marcescens. Description: Broth microdilution MIC. Format: cell-based.
Another assay relates to Acinetobacter spp. Description: Broth microdilution MIC. The assay is classed as cell-based. As to conditions: 2-3 isolates/organism.
The subject of assay [3] is Stenotrophomonas maltophilia. Description: Broth microdilution MIC. The assay is classed as cell-based.
A further assay has as its system Staph. aureus (MRSA). Description: Broth microdilution MIC. The assay is classed as cell-based. As to conditions: Staphylococcus aureus.
In a further assay the test system is Haemophilus influenzae. Description: Broth microdilution MIC. Format: cell-based.
The next assay concerns SARS-CoV-2. The assay is classed as cell-based. As to conditions: Calu-3; MOI 0.05; 24 hpi.
Setting [4] is: 2-3 isolates/organism, read-out: MIC.

Each structure is given as a SMILES string. In brackets after ≈: the same amount, converted by molar mass. Where two headings read alike, the source gives them in different places.

In the case of `Nc1ccc(O)c(C(=O)O)c1` [5-ASA, reference compound], in [1], the “mean reduction in IL-1β in distal colon tissue” value amounted to 33% and the “mean reduction in IL-6 in distal colon tissue” value stood at 86%.

As to `CC(C)(O/N=C(\C(=O)N[C@@H]1C(=O)N2C(C(=O)[O-])=C(C[n+]3ccccc3)CS[C@H]12)c1csc(N)n1)C(=O)O` [Ceftazidime], the MIC against Proteus vulgaris is 0.12 mg/L (≈ 0.22 µM); in the assay on Providencia stuartii, 0.12 to 64 mg/L (≈ 0.22 to 117 µM); in the assay on Klebsiella oxtoca (Klebsiella) it was 0.06 to 0.12 mg/L (≈ 0.11 to 0.22 µM); against Staph. epidermidis, 16 to 32 mg/L (≈ 29.3 to 58.5 µM).

For `CCCCCCCCCC(=O)N[C@@H](Cc1c[nH]c2ccccc12)C(=O)N[C@H](CC(N)=O)C(=O)N[C@@H](CC(=O)O)C(=O)N[C@@H]1C(=O)NCC(=O)N[C@@H](CCCN)C(=O)N[C@@H](CC(=O)O)C(=O)N[C@H](C)C(=O)N[C@@H](CC(=O)O)C(=O)NCC(=O)N[C@H](CO)C(=O)N[C@@H]([C@H](C)CC(=O)O)C(=O)N[C@@H](CC(=O)c2ccccc2N)C(=O)O[C@@H]1C` [Daptomycin, reference compound], the “antimicrobial activity against stationary phase cultures” value in assay [2] is “little antimicrobial activity”.

With `CC(=O)NC[C@H]1CN(c2ccc(N3CCOCC3)c(F)c2)C(=O)O1` [Linezolid], the MIC was above 16 mg/L in the assay on Citrobacter fruendi (Citrobacter fruendi, 2-3 isolates/organism, read-out: MIC); 1 mg/L (≈ 2.96 µM) in the assay with Strept. pneumoniae (Strept. pneumoniae, 2-3 isolates/organism, read-out: MIC); 1 to 2 mg/L (≈ 2.96 to 5.93 µM) with Entero. faecium (VRE) (Entero. faecium (VRE), 2-3 isolates/organism, read-out: MIC); above 16 mg/L in the assay with Proteus mirabilis (setting [4]); 1 mg/L (≈ 2.96 µM) in the assay on Strept. agalactiae (Strept. agalactiae, 2-3 isolates/organism, read-out: MIC); above 16 mg/L in the assay on Pseud. aeruginosa (Pseud. aeruginosa, 2-3 isolates/organism, read-out: MIC). Also, the MIC in the assay with Strept. viridians (Strept. viridians, 2-3 isolates/organism, read-out: MIC) is 1 mg/L (≈ 2.96 µM); with Proteus vulgaris (setting [4]), above 16 mg/L; in the assay with Staph. spp. coagulase- (Staph. spp. coagulase-, 2-3 isolates/organism, read-out: MIC) it was 1 mg/L (≈ 2.96 µM); in the assay with Providencia stuartii (setting [4]), above 16 mg/L; in the assay on Citrobacter koseri (setting [4]), above 16 mg/L; in the assay on Klebsiella pneumoniae (setting [4]), above 16 mg/L. Moreover, the MIC with Escherichia coli (setting [4]) is above 16 mg/L; in the assay on Strept. pyogenes (Strept. pyogenes, 2-3 isolates/organism, read-out: MIC), 1 mg/L (≈ 2.96 µM); with Enterobacter cloacae (setting [4]), above 16 mg/L; in the assay with Klebsiella oxtoca (Klebsiella oxtoca, 2-3 isolates/organism, read-out: MIC) it was above 16 mg/L; in the assay on Staph. saprophyticus (Staph. saprophyticus, 2-3 isolates/organism, read-out: MIC), 1 to 2 mg/L (≈ 2.96 to 5.93 µM); in the assay with Staph. epidermidis (Staph. epidermidis, 2-3 isolates/organism, read-out: MIC), 0.5 to 1 mg/L (≈ 1.48 to 2.96 µM). Besides, the MIC with Morganella morganii (setting [4]) was above 16 mg/L; in the assay with Entero. faecalis (Entero. faecalis, 2-3 isolates/organism, read-out: MIC), 1 to 2 mg/L (≈ 2.96 to 5.93 µM); in the assay with Serratia marcescens (setting [4]), above 16 mg/L; with Acinetobacter spp., above 16 mg/L; in [3] (setting [4]), above 16 mg/L; with Staph. aureus (MRSA) (Staph. aureus (MRSA), 2-3 isolates/organism, read-out: MIC) it was 1 to 2 mg/L (≈ 2.96 to 5.93 µM).

Consider `CN[C@H](CC(C)C)C(=O)N[C@H]1C(=O)N[C@@H](CC(N)=O)C(=O)N[C@H]2C(=O)N[C@H]3C(=O)N[C@H](C(=O)N[C@H](C(=O)O)c4cc(O)cc(O)c4-c4cc3ccc4O)[C@H](O)c3ccc(c(Cl)c3)Oc3cc2cc(c3O[C@@H]2O[C@H](CO)[C@@H](O)[C@H](O)[C@H]2O[C@H]2C[C@](C)(N)[C@H](O)[C@H](C)O2)Oc2ccc(cc2Cl)[C@H]1O` [Vancomycin], for which the MIC was above 128 mg/L against Citrobacter fruendi (Citrobacter); 0.5 mg/L (≈ 0.345 µM) in the assay with Strept. pneumoniae; above 128 mg/L against Entero. faecium (VRE) (VRE); above 128 mg/L against Proteus mirabilis; 0.5 mg/L (≈ 0.345 µM) in the assay with Strept. agalactiae; above 128 mg/L in the assay on Pseud. aeruginosa. For the same compound, the MIC with Strept. viridians was 0.5 to 1 mg/L (≈ 0.345 to 0.69 µM); against Proteus vulgaris, above 128 mg/L; against Staph. spp. coagulase-, 1 to 2 mg/L (≈ 0.69 to 1.38 µM); against Providencia stuartii it was above 128 mg/L; in the assay on Citrobacter koseri, above 128 mg/L; against Klebsiella pneumoniae, above 128 mg/L. Moreover, the MIC is above 128 mg/L in the assay on Escherichia coli; 0.5 mg/L (≈ 0.345 µM) with Strept. pyogenes; above 128 mg/L with Enterobacter cloacae; above 128 mg/L with Klebsiella oxtoca (Klebsiella); 1 to 2 mg/L (≈ 0.69 to 1.38 µM) in the assay with Staph. saprophyticus; 2 mg/L (≈ 1.38 µM) in the assay with Staph. epidermidis. Further, the MIC against Morganella morganii was above 128 mg/L; with Entero. faecalis, 1 mg/L (≈ 0.69 µM); with Serratia marcescens it was above 128 mg/L; against Haemophilus influenzae, 128 mg/L (≈ 88.3 µM); in assay [3], 32 to 128 mg/L (≈ 22.1 to 88.3 µM); with Staph. aureus (MRSA) (MRSA), 0.5 to 1 mg/L (≈ 0.345 to 0.69 µM).

Regarding `NC(=O)c1nc(F)c[nH]c1=O` [favipiravir, reference compound], the “inhibition of infectious titer, each drug alone” value in the assay with SARS-CoV-2 was at most 80%.

For the origin of these results see patent publication US11771694B2, “Arylamide compounds for treatment and prevention of viral infections” (priority 2020, dated 2023).
